Assay results published in patent publication US20050063956A1, “Method and device for attracting insects” (Colorado State University Research Foundation, priority 1998, published 2005).

Assays:
Reticulitermes flavipes = test: T-tube choice-test behavioral bioassay with CO2; conditions: in vivo
Protocol: (§1) Behavioral bioassay apparatus: The choice-test bioassay apparatus was constructed from a glass T-tube (5 mm inside diameter, 5 mm stem, with each branch 4.5 cm long). Each branch of the ‘T’ was bent downward (2.5 cm from the junction of the ‘T’) at a 45° angle to form a pitfall trap. A 5 mm NMR cap (cat. no. 100-0050, Drummond Scientific, Broomall, Pa.) with a 1 mm pinhole in it was firmly pushed over the end of each bent branch. A 25 cm length of Teflon tubing (0.8 mm inside diameter) was inserted 3 mm into the hole in each NMR cap and the other end of the tubing was connected to a 35 ml polyethylene syringe (cat. no. 106-0490, Sherwood Medical, St. Louis, Mo.). The two 35-ml syringes were connected to a syringe pump which was adjusted to provide an airflow of 1 ml per min into each choice arm of the bioassay apparatus.
(§2) Mixtures of CO2 and ambient air were tested to determine the termite response to a range of CO2 concentrations. […] The CO2 concentration of the syringes was determined by using GC-MS-SIM analysis (see below) before each bioassay. […]
(§3) Procedure: For bioassays, termite workers were collected from plastic tubs by using a camel's hair brush and were placed into a holding container constructed from a 3 cm length of Teflon tubing (8 mm inside diameter). […] Bioassays were conducted for 15 min, after which the number of termites in each pitfall was recorded. […]

[1] = test system: Reticulitermes virginicus; test: T-tube choice-test behavioral bioassay with CO2; conditions: in vivo
Protocol: as §1, §2, §3

With `O=C=O` [CO2, carbon dioxide] the “CO2 concentration of best attraction” value (Reticulitermes flavipes) was 10 mmol per mol and the “CO2 concentration of best attraction” value [1] was 10 mmol per mol.
